Consider 56 molecules from the OPERA property sets (Mansouri et al. 2018).

Conditions in one data set: not given
Turning to `CC(c1ccccc1)C(C)(C)O` (configuration not stated), the boiling point (usually the temperature at which the vapour pressure of the liquid equals the pressure above it) was 197 °C and the melting point (usually the temperature of the solid-liquid transition) worked out at 46 °C.
As to `CCOP(=S)(OCC)Oc1cnc2ccccc2n1`, the log10 vapour pressure (mmHg) was -5.58 and the melting point amounted to 31.5 °C.
On to `CN(C)c1ccc(C2(c3ccc(N(C)C)cc3)OC(=O)c3cc(N(C)C)ccc32)cc1`, for which the ready biodegradability result is recorded as “not readily biodegradable”.
The molecule `CCCCC#N` yielded a boiling point of 141 °C, a log10 Koa of 3.6, a log10 vapour pressure (mmHg) of 0.863 and a melting point of -96.2 °C.
In turn, `CC(C)CC1CCCCC1` yielded a boiling point of 171 °C, a log10 vapour pressure (mmHg) of 0.684 and a melting point of -95 °C.
In turn, `CCCCCCCCCCC(C)O` (configuration not stated) gave a boiling point of 252 °C and a melting point of 19 °C.
`COC(=O)c1ccc(C)cc1O`: the boiling point is 243 °C and the melting point worked out at 27.5 °C.
The matching figures for `Brc1ccc(Br)c2ccccc12`: 310 °C and 83 °C.
For `COc1c(OC)c(OC(C)=O)c2cc(Cl)ccc2c1OC(C)=O`, the melting point stood at 91.5 °C.
As to `Nc1cccc(-c2cccc(N)c2)c1`, the melting point was 93.5 °C.
`CCOCc1ccccc1` yielded a boiling point of 186 °C and a log10 vapour pressure (mmHg) of -0.0339.
On to `COc1ccc([N+](=O)[O-])c(OC)c1`, for which the melting point came to 76.5 °C.
Take `C=Cc1ccc(Br)cc1`: the boiling point was found to be 212 °C, the log10 vapour pressure (mmHg) was -0.108 and the melting point was determined as 7.7 °C.
For the molecule `COC(=O)C1(S(=O)(=O)c2ccc([N+](=O)[O-])cc2)CC1`, the melting point was 127 °C.
Take `Cc1ccc(Br)c(C)c1`: the boiling point amounted to 205 °C and the melting point is -17 °C.
Molecule `ClCC(Cl)C(Cl)(Cl)Cl` (configuration not stated) displayed a boiling point of 180 °C.
The molecule `CCC1(CC2(c3cccc(Cl)c3)CO2)C(=O)c2ccccc2C1=O` (configuration not stated) had a log10 vapour pressure (mmHg) of -7.7 and a melting point of 61 °C.
For the molecule `CCOC(=O)C1(C(=O)OCC)CCCC1`, the boiling point was 210 °C.
In the case of `Clc1cc2c(c(Cl)c1Cl)Oc1cc(Cl)c(Cl)c(Cl)c1O2`, the log10 Koa came to 11, the log10 vapour pressure (mmHg) is -10.4 and the melting point came out at 285 °C.
Take `CCCCCC(C)CCC` (configuration not stated): the boiling point came out at 166 °C and the melting point was -99 °C.
Consider `CCCCCCCCCCCCOS(=O)(=O)O`, for which the ready biodegradability entry was “readily biodegradable”.
`O=S1OC[C@@H]2[C@H](CO1)[C@]1(Cl)C(Cl)=C(Cl)[C@@]2(Cl)C1(Cl)Cl` (some centres not stated) had a log10 Koa of 8.64.
On to `N#CC(CCN1CCC(C(N)=O)(N2CCCCC2)CC1)(c1ccccc1)c1ccccc1`, for which the melting point was 150 °C.
`NS(=O)(=O)c1cc2c(cc1Cl)NCNS2(=O)=O`: the melting point came to 274 °C.
In the case of `O=C(Cl)c1ccc(Cl)cc1Cl`, the melting point amounted to 16.5 °C.
`CCOc1ccccc1OCC`: the boiling point worked out at 219 °C and the melting point was 44 °C.
As for `O=C(O)CSc1ccccc1`, the melting point was determined as 65 °C.
The molecule `C=CCC(O)CC=C` came in with a boiling point of 151 °C.
As to `Oc1ccccc1C=Nc1ccccc1`, the melting point stood at 49.5 °C.
Take `O=C1/C(=C2\Nc3c(Br)cc(Br)cc3C2=O)Nc2c(Br)cc(Br)cc21`: the log10 vapour pressure (mmHg) is -11.1.
For the molecule `CCCCC(C#N)(Cn1cncn1)c1ccc(Cl)cc1` (configuration not stated), the log10 Koc (L/kg) turned out to be 2.7.
As to `Nc1ccc(Cl)cc1[N+](=O)[O-]`, the melting point turned out to be 116 °C and the ready biodegradability entry is given as “not readily biodegradable”.
The molecule `c1ccc(C2CCCCC2)cc1` had a boiling point of 240 °C, a log10 vapour pressure (mmHg) of -1.4 and a melting point of 7.3 °C.
Take `CCOC(=O)C(F)(F)C(F)(F)F`: the melting point was found to be 75.5 °C.
The molecule `CC(C)(C)CC(C)(C)N` displayed a boiling point of 140 °C.
`Cc1ccc2ccccc2c1N` yielded a melting point of 32 °C.
`O=S(=O)(Cl)c1cccs1` had a melting point of 28 °C.
For `Clc1ccc(Br)cc1`, the boiling point amounted to 196 °C, the log10 vapour pressure (mmHg) was -0.588 and the melting point came out at 68 °C.
`CCCCN(CCCC)N=O` registered a log10 vapour pressure (mmHg) of -1.33.
On to `CC1=C(C(=O)Nc2ccccc2)CCCO1`, for which the melting point worked out at 110 °C.
The molecule `COc1cccc(CO)c1O` came in with a melting point of 61.5 °C.
Consider `Cc1cc(O)c(C(C)(C)C)cc1C(C)CC(c1cc(C(C)(C)C)c(O)cc1C)c1cc(C(C)(C)C)c(O)cc1C` (configuration not stated), for which the melting point was 186 °C.
As to `CCCCCCN1CCCC1=O`, the melting point worked out at 4 °C.
`CCOC(OCC)c1ccco1`: the boiling point worked out at 192 °C.
Molecule `CC[C@]1(O)CC[C@H]2[C@@H]3CCC4=CC(=O)CC[C@@H]4[C@H]3CC[C@@]21C` registered a melting point of 140 °C.
The molecule `C=CC(C)(CCC=C(C)C)OC(C)=O` (configuration not stated) returned a boiling point of 220 °C and a log10 vapour pressure (mmHg) of -0.955.
Molecule `COc1c(C(C)C)oc2cc3oc(=O)ccc3cc12` yielded a melting point of 85 °C.
For the molecule `CC(C)C(=O)OC1CCCCC1`, the boiling point came out at 204 °C.
Molecule `CCCOc1ccc(C(=O)O)cc1` displayed a melting point of 145 °C.
On the same count and under the same terms, to `CNC(=O)C(C)(C(C)C)C(C)C` belongs 60 °C; to `NN=C(c1ccccc1)c1ccccc1`, 96.5 °C.
With `CCc1ccccc1-n1c(C)nc2ccccc2c1=O`, the melting point amounted to 81 °C.
The molecule `NCCCC[C@H](N)C(=O)O` gave a log10 vapour pressure (mmHg) of -8.28.
The molecule `N#CC(Br)c1ccccc1` (configuration not stated) registered a melting point of 29 °C.

Still in this data set, the particulars now being: fish.
Take `CCCCc1cc2ccccc2c2ccccc12`: the log10 biotransformation half-life (days) was 0.29.
In turn, `c1ccc2sc(SSc3nc4ccccc4s3)nc2c1` showed a log10 BCF of 1.42 and a log10 biotransformation half-life (days) of -0.91.
`CC(C)CC1CCCCC1` displayed a log10 biotransformation half-life (days) of 0.91.
`Clc1cc2c(c(Cl)c1Cl)Oc1cc(Cl)c(Cl)c(Cl)c1O2` gave a log10 BCF of 3.93 and a log10 biotransformation half-life (days) of 1.21.
The matching figures for `Nc1ccc(Cl)cc1[N+](=O)[O-]`: 1.04 and -0.96.
